The NIST ThermoML archive (doi:10.1016/j.jct.2017.01.004)
Numbers after ± are expanded uncertainties.

Columns and labels:
[1] = Crystal; DTA
[2] = Molar enthalpy of transition or fusion; conditions: Crystal; DSC

Question: With `O=C(O)CO` [2-hydroxyethanoic acid] as the compound, how does the Normal melting temperature [1] read?
Answer: Its Normal melting temperature is 77.60 ± 1.1 °C.

Question: And the “Molar enthalpy of transition or fusion” value [2]?
Answer: The value was 4.76 ± 0.263 kcal/mol.
